# Patent US20250236841A1, “METHODS TO ENHANCE TUMOR IMMUNOGENICITY AND COMPOSITIONS FOR AUTOLOGOUS CANCER IMMUNOTHERAPEUTIC PRODUCTS USING MODIFIED TUMOR CELLS AND MODIFIED DENDRITIC CELLS” (AIVITA BIOMEDICAL, INC., priority 2017, published 2025)
# Where a SMILES comes first, the peptide text is derived from it. The star is where a group is joined. Cbz = O=C(OCc1ccccc1)*; CH2F = FC*
# Key:
# Assay type in all cases: cell-based
# [1] = test system: established ovarian tumor line; assay: cell survival of ovarian tumor line culture exposed to proteasome inhibitor and/or caspase inhibitor
# Procedure: To benefit from the increased antigen content that can be obtained through use of a proteasome inhibitor, but also avoid triggering apoptosis, the proteasome inhibitor can be used in conjunction with a caspase inhibitor. First, to find the concentration of the proteasome inhibitor that caused minimal cell death, a range of bortezomib dilutions were tested in vitro on an established ovarian tumor line after reaching 70-90% confluence. The cultures were maintained in a standard DMEM:F12 media with 5% FBS. Bortezomib was reconstituted in DMSO and added directly to the cultures in concentrations from 0.1 to 100 nM
# A concentration of 20 μM was chosen for further experiments.
# Then the sequential application of the caspase inhibitor and proteasome inhibitor was tested. The tumor cells were cultured in the presence of 20 μM caspase inhibitor Z-VAD-fmk for 24 hours and then the medium was exchanged for medium containing bortezomib and the cells culture for another 48 hours. Bortezomib was used at the lowest concentration of that induced cell death, 5 nM.
# The simultaneous application of Bortezomib and Z-VAD-fmk was also tested using 1 nM Botezomib with either 1 or 20 μM Z-VAD-fmk.
# [2] = test system: isolated live cancer cells; assay: culture with caspase inhibitor (Example 6); settings: Z-VAD-fmk 5-50 μM throughout proliferation and augmentation phases
# Procedure: Isolated live cancer cells are placed in tissue culture. The tissue culture medium is supplemented with the broad spectrum caspase inhibitor Z-VAD-fmk at a concentration of 5-50 μM. The caspase inhibitor is added at the initiation of cell culture and maintained throughout the proliferation and augmentation phases of culture.
# [3] = test system: isolated live cancer cells; assay: augmentation culture with histone deacetylase inhibitors (Example 2); settings: 0.01 mM to 10 mM each in the medium during augmentation phase
# Procedure: Isolated live cancer cells are placed in tissue culture. During an augmentation phase, the tissue culture medium is supplemented with valproic acid or phenylbutyrate, or both, each at a concentration of 0.01 mM to 10 mM each. The level of histone acetylation, mRNA transcription, and protein expression, including expression of TAA, all increase.
# [4] = test system: isolated live cancer cells; assay: depletion of Wnt signaling ligands (Example 7); settings: beta-methyl-cyclodextrin 0.5-20 mM, one half to 3 hours prior to the end of the augmentation phase
# Procedure: Isolated live cancer cells are placed in tissue culture. One half to 3 hours prior to the end of the augmentation phase and preparation for DC loading, the tissue culture medium is supplemented with beta-methyl-cyclodextrin at a concentration of 0.5-20 mM. Cholesterol and Wnt ligands are depleted from the plasma membrane of the cancer cells.
# MUC1 = assay: antibody labeling and epifluorescence imaging of protein content, MUC1; settings: bortezomib 0.1 nM to 1.0 nM, without caspase inhibitor (FIGS. 6 and 7)
# Excerpt: (§1) To evaluate protein content, we queried two targets that are commonly found in cancers: CA125, which is typically specific for ovarian cancer, and MUC1, which is common in many types of cancer (for example, colon, breast, ovarian, lung and pancreatic). The proteins were labeled using antibodies conjugated with Alexa Fluor 488 (green; anti-MUC1) or 594 (red; anti-CA125). The cells were imaged with an epifluorescence microscope (Nikon) with pre-set parameters for exposure and magnification.
# CA125 = assay: antibody labeling and epifluorescence imaging of protein content, CA125; settings: bortezomib 0.1 nM to 1.0 nM, without caspase inhibitor (FIGS. 6 and 7)
# Excerpt: as §1
# [5] = test system: isolated live cancer cells; assay: augmentation culture with DNA methyltransferase inhibitor (Example 3); settings: decitabine 100-500 nM throughout, or 1 μM-10 μM at beginning of augmentation phase
# Procedure: Isolated live cancer cells are placed in tissue culture. The tissue culture medium is supplemented with decitabine from the beginning of the augmentation phase for not less than one hour and up to the entire augmentation phase depending on concentration. A concentration of 100-500 nM can be used throughout the augmentation phase of cultivation. Alternatively a higher concentration of 1 μM-10 μM can be used at beginning of the augmentation phase and then removed or reduced to the lower concentration.
# [6] = test system: isolated live cancer cells; assay: augmentation culture with proteasome inhibitors (Example 4); settings: lactacystin 0.1-1 μM, epoxomicin 1-2 μM, and/or HMB 10-150 μg/mL; at least the last 24 hours prior to harvest
# Procedure: Isolated live cancer cells are placed in tissue culture. The tissue culture medium is supplemented with lactacystin at a concentration of 0.1-1 μM, epoxomicin at a concentration of 1-2 μM, and/or HMB at a concentration of 10-150 μg/mL. The inhibitor can be present throughout the augmentation phase of culture, or a portion thereof, but at least the last 24 hours prior to harvest. Doses in the lower end of the stated ranges are appropriate for longer term exposure. Doses at the high end of the state ranges can be used in the last 24 hours of cultivation. The content of protein (including normal, mutated and misfolded proteins) in the cancer cells is increased.
compound,measurement,setting,value
COC(=O)C[C@H](NC(=O)[C@H](C)NC(=O)[C@@H](NC(=O)OCc1ccccc1)C(C)C)C(=O)CF [Z-VAD-fmk] (Cbz-Val-Ala-Asp(OMe)-CH2F),effect on cell survival,"[1]; Z-VAD-fmk 10-100 μM, without an apoptotic challenge",did not have an effect on cell survival
same,"accumulation of proteins, including TAA",[2],accumulate to higher levels than in untreated cultures
same,viability of the cultured cancer cells,[2],maintaining a high degree of viability
CCCC(CCC)C(=O)O [valproic acid],"level of histone acetylation, mRNA transcription, and protein expression, including expression of TAA",[3],increase
methyl-β-cyclodextrin [beta-methyl-cyclodextrin],cholesterol and Wnt ligands of the plasma membrane of the cancer cells,[4],depleted
CC(C)C[C@H](NC(=O)[C@H](Cc1ccccc1)NC(=O)c1cnccn1)B(O)O [bortezomib],effect on survival,[1]; below 1 nM bortezomib,did not have effect on survival
same,lowest concentration that induced cell death,[1]; bortezomib alone,5 nM
same,cell survival,"[1]; concentrations above 5 nM bortezomib, within 24 hours, DMEM:F12 with 5% FBS",all cells died
same,cell survival,[1]; from 5 nM to 1 nM bortezomib,cell survived proportional with decreasing concentration
same,"abundance and content of MUC1 (mean fluorescence intensity, sum of labeled pixels)",MUC1,increase
same,"abundance and content of CA125 (mean fluorescence intensity, sum of labeled pixels)",CA125,increase
"Nc1ncn([C@H]2C[C@H](O)[C@@H](CO)O2)c(=O)n1 [decitabine, 5-aza-2′-deoxycytidine]",expression of silenced germ line and tumor-specific antigens,[5],increased and becomes more uniform
same,hypermethylation,[5],reversed
CC(=O)N[C@@H](CSC(=O)[C@]1([C@@H](O)C(C)C)NC(=O)[C@H](C)[C@@H]1O)C(=O)O [lactacystin],"content of protein (including normal, mutated and misfolded proteins) in the cancer cells",[6],increased
CC[C@H](C)[C@H](NC(=O)[C@H]([C@@H](C)CC)N(C)C(C)=O)C(=O)N[C@H](C(=O)N[C@@H](CC(C)C)C(=O)[C@@]1(C)CO1)[C@@H](C)O [epoxomicin],"content of protein (including normal, mutated and misfolded proteins) in the cancer cells",[6],increased
"CC(C)(O)CC(=O)O [HMB, beta-hydroxy beta-methylbutyrate]","content of protein (including normal, mutated and misfolded proteins) in the cancer cells",[6],increased
